Reference: US12583849B2, “KCNT1 inhibitors and methods of use” (Praxis Precision Medicines, Inc., priority 2020, dated 2026)

Molecular target: T1, KCNT1 (KNa1.1, Slack) (Homo sapiens, UniProt Q5JUK3)
T1 construct: expressed in transfected cells; host or cells: HEK-TREX (tetracycline-inducible cell line)
T1 sequence (Q5JUK3 1-1230): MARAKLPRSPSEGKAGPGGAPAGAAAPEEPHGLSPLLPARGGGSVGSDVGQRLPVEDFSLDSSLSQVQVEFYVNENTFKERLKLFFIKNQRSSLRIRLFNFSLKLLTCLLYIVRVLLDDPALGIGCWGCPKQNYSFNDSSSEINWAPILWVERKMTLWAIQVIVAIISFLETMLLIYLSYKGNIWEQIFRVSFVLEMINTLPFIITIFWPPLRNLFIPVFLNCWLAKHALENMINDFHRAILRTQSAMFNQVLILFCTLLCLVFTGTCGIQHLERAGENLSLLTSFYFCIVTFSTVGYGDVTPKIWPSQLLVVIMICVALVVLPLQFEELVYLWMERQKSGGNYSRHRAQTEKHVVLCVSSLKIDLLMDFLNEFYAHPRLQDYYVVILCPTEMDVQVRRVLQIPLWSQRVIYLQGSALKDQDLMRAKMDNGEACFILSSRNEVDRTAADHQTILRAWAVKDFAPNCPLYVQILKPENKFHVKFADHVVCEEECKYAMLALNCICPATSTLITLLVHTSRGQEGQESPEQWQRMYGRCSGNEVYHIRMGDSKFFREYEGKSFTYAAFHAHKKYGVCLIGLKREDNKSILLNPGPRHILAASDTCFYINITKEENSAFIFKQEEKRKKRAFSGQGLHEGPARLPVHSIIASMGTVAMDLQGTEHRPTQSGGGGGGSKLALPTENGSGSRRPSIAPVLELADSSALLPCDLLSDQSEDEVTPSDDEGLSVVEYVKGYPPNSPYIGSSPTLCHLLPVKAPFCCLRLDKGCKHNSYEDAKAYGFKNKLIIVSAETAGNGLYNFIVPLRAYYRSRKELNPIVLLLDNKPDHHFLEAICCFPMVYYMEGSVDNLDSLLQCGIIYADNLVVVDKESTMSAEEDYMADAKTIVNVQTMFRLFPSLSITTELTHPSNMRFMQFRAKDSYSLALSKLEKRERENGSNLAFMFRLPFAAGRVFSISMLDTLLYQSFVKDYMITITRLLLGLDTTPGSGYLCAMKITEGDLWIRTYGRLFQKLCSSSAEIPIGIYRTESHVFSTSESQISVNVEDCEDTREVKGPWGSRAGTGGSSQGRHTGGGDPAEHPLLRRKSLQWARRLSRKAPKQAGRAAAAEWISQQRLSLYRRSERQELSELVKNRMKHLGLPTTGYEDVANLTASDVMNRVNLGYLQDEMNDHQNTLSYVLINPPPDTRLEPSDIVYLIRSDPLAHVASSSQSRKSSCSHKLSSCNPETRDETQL
Test: KCNT1-WT-Basal Patch Clamp Assay
Format: cell-based
Conditions: tetracycline inducible cell line (HEK-TREX); SyncroPatch 384PE automated patch clamp, perforated patch mode, room temperature, step from -80 mV to 0 mV
Summary of the method: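 Tetracycline-inducible HEK-TREX cells expressing human KCNT1, recorded by automated perforated patch clamp (10 μM escin) at room temperature, with 4 mM external K+ at pH 7.4. Mean current taken during a 100 ms step from −80 mV to 0 mV, averaged over 3 sweeps. IC50 from Hill fit of % inhibition; otherwise % inhibition at top concentration.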

SMILES: C[C@H](NC(=O)[C@H]1CC[C@H](C)CC1)c1nc(-c2ccnc(C(F)(F)F)c2)no1 [Compound I-26, trans-4-methyl-N—((S)-1-(3-(2-(trifluoromethyl)pyridin-4-yl)-1,2,4-oxadiazol-5-yl)ethyl)cyclohexane-1-carboxamide]
- IC50: ≤ 1 µM

SMILES: CC(NC(=O)c1cn2ccccc2n1)c1nc(-c2cccc(F)c2)no1 (stereo not shown) [Compound I-50, N-[1-[3-(3-fluorophenyl)-1,2,4-oxadiazol-5-yl]ethyl]imidazo[1,2-a]pyridine-2-carboxamide]
- IC50: ≥ 20 µM

SMILES: C[C@H](NC(=O)c1ccc(S(=O)(=O)C2CC2)s1)c1nc(-c2ccnc(C3CC3)c2)no1 [Compound I-97, (S)—N-(1-(3-(2-cyclopropylpyridin-4-yl)-1,2,4-oxadiazol-5-yl)ethyl)-5-(cyclopropylsulfonyl)thiophene-2-carboxamide]
- IC50: ≤ 1 µM

SMILES: Cc1nc(C(F)(F)F)ccc1C(=O)N[C@@H](C)c1nc(-c2ccnc(C3CC3)c2)no1 [Compound I-53, (S)—N-(1-(3-(2-cyclopropylpyridin-4-yl)-1,2,4-oxadiazol-5-yl)ethyl)-2-methyl-6-(trifluoromethyl)nicotinamide]
- IC50: ≤ 1 µM

SMILES: C[C@H](NC(=O)C1(C)CCCCC1)c1nc(-c2ccnc(C(F)(F)F)c2)no1 [Compound I-71, 1-methyl-N-[(1S)-1-[3-[2-(trifluoromethyl)-4-pyridyl]-1,2,4-oxadiazol-5-yl]ethyl]cyclohexanecarboxamide]
- IC50: ≤ 1 µM

SMILES: C[C@H](NC(=O)c1cccc(C(N)=O)c1)c1nc(-c2ccnc(C3CC3)c2)no1 [Compound I-91, (S)—N-(1-(3-(2-cyclopropylpyridin-4-yl)-1,2,4-oxadiazol-5-yl)ethyl) isophthalamide]
- IC50: 1 to 20 µM

SMILES: C[C@H](NC(=O)c1ccnc(C(F)(F)F)c1)c1nc(-c2ccnc(C(F)(F)F)c2)no1 [Compound I-14, (S)-2-(trifluoromethyl)-N-(1-(3-(2-(trifluoromethyl)pyridin-4-yl)-1,2,4-oxadiazol-5-yl)ethyl)isonicotinamide]
- IC50: ≤ 1 µM

SMILES: C[C@H](NC(=O)[C@H]1CC[C@@H](C)CC1)c1nc(-c2ccnc(C(F)(F)F)c2)no1 [Compound I-36, cis-4-methyl-N—((S)-1-(3-(2-(trifluoromethyl)pyridin-4-yl)-1,2,4-oxadiazol-5-yl)ethyl)cyclohexane-1-carboxamide]
- IC50: ≤ 1 µM

SMILES: C[C@H](NC(=O)c1ccc(Cl)cc1)c1nc(-c2ccnc(C3CC3)c2)no1 [Compound I-62, (S)-4-chloro-N-(1-(3-(2-cyclopropylpyridin-4-yl)-1,2,4-oxadiazol-5-yl)ethyl)benzamide]
- IC50: ≤ 1 µM

SMILES: CC(C)Oc1cc(-c2noc([C@H](C)NC(=O)C3CCCC3)n2)ccn1 [Compound I-46, (S)—N-(1-(3-(2-isopropoxypyridin-4-yl)-1,2,4-oxadiazol-5-yl)ethyl)cyclopentane-carboxamide]
- IC50: ≤ 1 µM

SMILES: Cc1nc(C)c(C(=O)N[C@H](C)c2nc(-c3cccc(F)c3)no2)s1 [Compound I-37, (R)—N-(1-(3-(3-fluorophenyl)-1,2,4-oxadiazol-5-yl)ethyl)-2,4-dimethylthiazole-5-carboxamide]
- IC50: 1 to 20 µM

SMILES: C[C@H](NC(=O)c1ccc(S(C)(=O)=O)s1)c1nc(-c2ccnc(C3CC3)c2)no1 [Compound I-70, (S)—N-(1-(3-(2-cyclopropylpyridin-4-yl)-1,2,4-oxadiazol-5-yl)ethyl)-5-(methylsulfonyl)thiophene-2-carboxamide]
- IC50: ≤ 1 µM

SMILES: C[C@H](NC(=O)c1ccc(Br)s1)c1nc(-c2ccnc(C(F)(F)F)c2)no1 [Compound I-18, (S)-5-bromo-N-(1-(3-(2-(trifluoromethyl)pyridin-4-yl)-1,2,4-oxadiazol-5-yl)ethyl)thiophene-2-carboxamide]
- IC50: ≤ 1 µM

SMILES: C[C@H](NC(=O)c1nc(-c2ccccc2)nn1C)c1nc(-c2cccc(F)c2)no1 [Compound I-38, (S)—N-(1-(3-(3-fluorophenyl)-1,2,4-oxadiazol-5-yl)ethyl)-1-methyl-3-phenyl-1H-1,2,4-triazole-5-carboxamide]
- IC50: ≥ 20 µM

SMILES: C[C@H](NC(=O)[C@H](C)c1ccccc1)c1nc(-c2ccnc(C3CC3)c2)no1 [Compound I-58, (R)—N—((S)-1-(3-(2-cyclopropylpyridin-4-yl)-1,2,4-oxadiazol-5-yl)ethyl)-2-phenylpropanamide]
- IC50: ≤ 1 µM

SMILES: C[C@H](NC(=O)c1cccnn1)c1nc(-c2ccnc(C(F)(F)F)c2)no1 [Compound I-24, (S)—N-(1-(3-(2-(trifluoromethyl)pyridin-4-yl)-1,2,4-oxadiazol-5-yl)ethyl)pyridazine-3-carboxamide]
- IC50: ≥ 20 µM

SMILES: COc1ccc(C(=O)N[C@@H](C)c2nc(-c3ccnc(C4CC4)c3)no2)cc1 [Compound I-61, (S)—N-(1-(3-(2-cyclopropylpyridin-4-yl)-1,2,4-oxadiazol-5-yl)ethyl)-4-methoxybenzamide]
- IC50: ≤ 1 µM

SMILES: CC(=O)N1CCCC(C(=O)N[C@@H](C)c2nc(-c3ccnc(C(F)(F)F)c3)no2)C1 (mixture of isomers) [Compound I-85, 1-acetyl-N-[(1S)-1-[3-[2-(trifluoromethyl)-4-pyridyl]-1,2,4-oxadiazol-5-yl]ethyl]piperidine-3-carboxamide]
- IC50: ≥ 20 µM

SMILES: C[C@H](NC(=O)C1CC2(CCC2)C1)c1nc(-c2ccnc(C3CC3)c2)no1 [Compound I-98, (S)—N-(1-(3-(2-cyclopropylpyridin-4-yl)-1,2,4-oxadiazol-5-yl)ethyl) spiro[3.3]heptane-2-carboxamide]
- IC50: ≤ 1 µM

SMILES: Cc1nc(C)c(C(=O)N[C@@H](C)c2nc(-c3cccc(F)c3)no2)s1 [Compound I-39, (S)—N-(1-(3-(3-fluorophenyl)-1,2,4-oxadiazol-5-yl)ethyl)-2,4-dimethylthiazole-5-carboxamide]
- IC50: 1 to 20 µM

SMILES: C[C@H](NC(=O)[C@@H](C)c1ccccc1)c1nc(-c2ccnc(C3CC3)c2)no1 [Compound I-64, (2S)—N-[(1S)-1-[3-(2-cyclopropyl-4-pyridyl)-1,2,4-oxadiazol-5-yl]ethyl]-2-phenyl-propanamide]
- IC50: ≤ 1 µM

SMILES: C[C@H](NC(=O)c1cccc(S(C)(=O)=O)c1)c1nc(-c2ccnc(C3CC3)c2)no1 [Compound I-92, (S)—N-(1-(3-(2-cyclopropylpyridin-4-yl)-1,2,4-oxadiazol-5-yl)ethyl)-3-(methylsulfonyl)benzamide]
- IC50: ≤ 1 µM

SMILES: C[C@H](NC(=O)C1CCCN(C)C1)c1nc(-c2ccnc(C(F)(F)F)c2)no1 (stereo partly drawn) [Compound I-68, 1-methyl-N—((S)-1-(3-(2-(trifluoromethyl)pyridin-4-yl)-1,2,4-oxadiazol-5-yl)ethyl)piperidine-3-carboxamide]
- IC50: ≥ 20 µM

SMILES: C[C@H](NC(=O)C1CC(C)(C)C1)c1nc(-c2ccnc(C(F)(F)F)c2)no1 [Compound I-56, (S)-3,3-dimethyl-N-(1-(3-(2-(trifluoromethyl)pyridin-4-yl)-1,2,4-oxadiazol-5-yl)ethyl)cyclobutane-1-carboxamide]
- IC50: ≤ 1 µM

SMILES: C[C@H](NC(=O)[C@H]1CC[C@@H](C)CC1)c1nc(-c2ccnc(C3CC3)c2)no1 [Compound I-84, (1S,4R)—N—((S)-1-(3-(2-cyclopropylpyridin-4-yl)-1,2,4-oxadiazol-5-yl)ethyl)-4-methylcyclohexane-1-carboxamide]
- IC50: ≤ 1 µM

SMILES: CC(=O)N1CCCCC1C(=O)N[C@@H](C)c1nc(-c2ccnc(C(F)(F)F)c2)no1 (mixture of isomers) [Compound I-86, 1-acetyl-N-[(1S)-1-[3-[2-(trifluoromethyl)-4-pyridyl]-1,2,4-oxadiazol-5-yl]ethyl]piperidine-2-carboxamide]
- IC50: ≥ 20 µM

SMILES: C[C@H](NC(=O)C1CCC(C)(C)CC1)c1nc(-c2ccnc(C(F)(F)F)c2)no1 [Compound I-67, (S)-4,4-dimethyl-N-(1-(3-(2-(trifluoromethyl)pyridin-4-yl)-1,2,4-oxadiazol-5-yl)ethyl)cyclohexane-1-carboxamide]
- IC50: ≤ 1 µM

SMILES: CC(C)Oc1cc(-c2noc([C@H](C)NC(=O)c3ccccc3)n2)ccn1 [Compound I-43, (S)—N-(1-(3-(2-isopropoxypyridin-4-yl)-1,2,4-oxadiazol-5-yl)ethyl)benzamide]
- IC50: ≤ 1 µM
